Test: xn = mol fraction of the nth substance listed
Settings: 298.15 K, Liquid

CCCCCCCCCl [1-chlorooctane] + CN1CCCC1=O
mass density [kg/m3]
Settings	x2 = 0.0969	x2 = 0.2014	x2 = 0.3097	x2 = 0.4076	x2 = 0.5021	x2 = 0.6022	x2 = 0.7005	x2 = 0.8007	x2 = 0.9008
100 kPa	878	888.8	901.2	913.6	926.9	942.5	959.8	979.6	1002.2
500 kPa	878.3	889.1	901.5	913.9	927.2	942.8	960	979.8	1002.4
1000 kPa	878.6	889.4	901.9	914.3	927.5	943.1	960.3	980.1	1002.7
1500 kPa	879	889.8	902.3	914.6	927.8	943.4	960.6	980.4	1003
2000 kPa	879.4	890.2	902.5	914.9	928.2	943.7	960.9	980.7	1003.2
2500 kPa	879.7	890.6	902.9	915.2	928.5	944.1	961.2	981	1003.5
2900 kPa	–	–	–	–	–	944.4	–	–	–
3000 kPa	880.2	890.9	903.3	915.6	928.8	–	961.6	981.3	1003.8
3400 kPa	880.5	–	–	–	–	–	–	–	–
3500 kPa	–	891.3	903.7	916	929.1	944.7	961.8	981.6	1004.1
4000 kPa	880.8	891.6	904	916.3	929.5	945	962.2	981.9	1004.4
4400 kPa	–	–	–	916.6	–	–	–	–	–
4500 kPa	881.2	892	904.4	–	929.8	945.3	962.4	982.2	1004.6
5000 kPa	881.6	892.3	904.7	917	930.2	945.7	962.8	982.5	1004.9
5500 kPa	882	892.7	905	917.3	930.4	946	963.1	982.8	1005.2
5900 kPa	–	–	–	–	930.8	–	–	–	–
6000 kPa	882.3	893.1	905.4	917.6	–	946.3	963.4	983.1	1005.5
6500 kPa	882.7	893.4	905.8	917.9	931.1	946.6	963.7	983.3	1005.8
7000 kPa	883.1	893.8	906.1	918.4	931.5	946.9	964	983.6	1006.1
7400 kPa	883.4	–	–	–	–	–	–	–	–
7500 kPa	–	894.1	906.4	918.6	931.8	947.2	964.3	983.9	1006.4
7900 kPa	883.7	–	–	–	–	–	–	–	–
8000 kPa	–	894.4	906.7	918.9	932.1	947.5	964.6	984.2	1006.6
8500 kPa	884.1	894.8	907	919.2	932.5	947.8	964.9	984.5	1007
9000 kPa	884.4	895.1	907.4	919.6	932.8	948.1	965.2	984.8	1007.2
9500 kPa	884.8	895.5	907.8	920	933.1	948.4	965.5	985.1	1007.5
9900 kPa	–	–	–	–	–	–	–	985.4	–
10000 kPa	885.3	895.9	908.1	–	–	–	–	–	–
